The results in this text go back to US11679168B2, “Caspase-3-triggered molecular self-assembling PET probes and uses thereof” (The Board of Trustees of the Leland Stanford Junior …, priority 2018, dated 2023).

The test concerns H460 tumor. Description: PET/CT imaging of H460 tumor-bearing mice. Format: in vivo. As to the method: FIGS. 4A and 4D illustrate representative 55- to 60-min axial and sagittal fused PET/CT images. Nude mice received approximately 200 μCi of [18F]-C-SNAT4 via tail vein injection, with PET/CT images acquired at 55 to 60 min after injection. Arrowheads indicate the tumor, identified from the CT images. H460 and H1299 tumor bearing mice were naïve, or 24 h following last dose of cisplatin treatment (Low dose: 3 mg/kg every other day for three times; high dose: 9 mg/kg every other day for three times).
Animal model and probe administration: For subcutaneous tumor models, H460 or H1299 (2×10^6 cells in 100 μl of PBS) were injection subcutaneously on the back of female nu/nu nude mice (aged 6 to 8 weeks; Charles River Laboratories). Tumor dimensions were measured periodically using a caliper (by the same researcher), with tumor volumes calculated by the following equation: volume=a×b×c/2, where a, b, and c represent three orthogonal axis of the tumor. Treatment-response analysis was performed 24 h after drug treatment. For all other experiments, animals were culled 26 h after therapy and tissues excised for analysis. For chemotherapy mouse model, tumors were grown to about 150 mm^3, and then treatment that consisted of cisplatin (Sigma-Aldrich; Low dose: 3 mg/kg; high dose: 9 mg/kg) or saline was initiated through intravenous administration, every other day for three times. Total mouse body weight and tumor size were measured every other day. Treat or left untreated. For radiotherapy mouse model, treatment consisted of two fractions of 5 Gy or 2 Gy dose of radiation therapy delivered with a single 225 kV beam using the Kimtron IC 225 irradiator (Kimtron Medical, CT, USA).
Small-animal PET/CT imaging and analysis: PET/CT imaging was carried out on a docked Siemens Inveon PET/CT scanner (matrix size, 128×128×159; CT attenuation-corrected; non-scatter corrected) (Siemens Medical Solutions USA) following a bolus intravenous injection of approximately 200 μCi of [^18F]-C-SNAT4 into tumor-bearing mice (n=56, 3-4 mice per group). Dynamic scans were acquired in list mode format over 90 min, and sorted into 22 times of frames, 0.5-mm sinogram bins for image reconstruction (4×15 s, 4×60 s, 11×300 s, 3×600 s). Mice were anesthetized with 2% isoflurane near the center of the FOV to ensure the highest image resolution and sensitivity. Iterative reconstruction was performed using 3D ordered-subsets expectation maximization (3D-OSEM) followed by fast maximum a posteriori (fast MAP) with the following parameters: MAP OSEM iterations, 2; MAP subsets, 16; MAP iterations, 18. Siemens Inveon Research Workplace software v.4.0 was used for visualization of radiotracer uptake in the tumor, to define the three-dimensional (3D) volumes of interest (VOI) and for 3D-visualisation to create volume rendering technique (VRT) images. The relative tumor or organ radioactivity concentrations were from mean pixel values within the multiple ROI volumes. The radioactivity concentration within organs was obtained from mean pixel values with in the VOI and converted to counts per milliliter per min and then divided by the injected dose (ID) to obtain an imaging VOI-derived percentage of the injected radioactive dose per cubic centimeter of tissue (% ID/cc).

Setting [1] is: H460, 2 Gy-treated tumor, [18F]-C-SNAT4 only.

For `CCSSCC(NC(=O)C(CC(=O)O)NC(=O)C(NC(=O)C(CCC(=O)O)NC(=O)C(CC(=O)O)NC(C)=O)C(C)C)C(=O)NCC(=O)NC(Cc1cn(CCOCCOCCOCC[18F])nn1)C(=O)NCc1ccc(C(=O)NCCCOc2cnc(C#N)nc2)cc1` (stereo not shown) [[^18F]-C-SNAT4], the “AUC of time activity curve” value runs as follows: under setting [1], 123.6±30.9 % ID min/cc; (H460, 5 Gy-treated, hot tracer only, t=0 to 85 min) 279.4±16.6 % ID min/cc; (H460, high dose cisplatin treated, t=0 to 85 min) 148.9±10.1 % ID min/cc; (H460, low dose cisplatin treated, t=0 to 85 min) 116.7±6.0 % ID min/cc; (H460, naive tumor, t=0 to 85 min) 67.5±12.0 % ID min/cc; (H460, naïve tumors (2 Gy experiment)) 92.1±20.9 % ID min/cc. Moreover, the tumor uptake reads like this: under setting [1], 1.2±0.3 % ID/cc; (H460, high dose cisplatin (9 mg/kg x3) treated, 85 min post-injection) 1.7±0.1 % ID/cc; (H460, low dose cisplatin (3 mg/kg x3) treated, 85 min post-injection) 1.2±0.1 % ID/cc; (H460, naïve animals, 85 min post-injection) 0.7±0.11 % ID/cc; (H460, two fractions of 5 Gy, hot tracer only, 85 min post injection) 1.0±0.3 % ID/cc; (H460, untreated tumor (2 Gy experiment)) 0.8±0.1 % ID/cc. In addition, the tumor uptake (H460, untreated tumor, hot tracer (mixture comparison), 85 min) was 0.4±0.1 % ID/cc.
